# Assay results: US20020051978A1, “Methods and compositions for the identification, assessment, prevention and therapy of human cancers” (priority 2000, published 2002)
# Where “and” joins values, the source holds several entries; their conditions need not be identical. Equal entries are not always repeated. Where two headings read alike, the source gives them in different places.
# Legend:
# [1] = test system: 60 cancer cell lines (NCI 60 cancer cell line series); assay: NCI-DTP in vitro cancer screen, sulforhodamine B (SRB) growth inhibition, 48 hour exposure; format: cell-based, human
# Protocol: Cancer Cell Line Preparation. Sixty cancer cell lines were obtained from the National Cancer Institute Developmental Therapeutics Program (NCI-DTP). Procedures for growing cells and testing compounds have been described previously (Scudiero et al., Cancer Res. 1988, 48:4827-4833; Stinson et al., Anticancer Res.; Myers et al., Electrophoresis 1997, 18:647-653). Cells are plated on day 0 at a density individualized for each cell line so that they will generally be sub-confluent at the end of the assay period. On day 1, a compound is added in the format for a duplicate-well, 5-dose, ten-fold interval dose response study.
# No-drug, no-cell and no-growth controls are included. On day 3 the cells are processed for staining with sulforhodamine B (SRB), which reflects the amount of cell mass present at the end of a 48 hour exposure to the test agent. From dose response curves based on the SRB data, various parameters can be determined. The one used in the present study is the G15o, defined as the concentration of compound required to inhibit growth of the cell line by 50%. More precisely, the quantity used in the calculation to be described is the potency measure -log{GI50}.
# Activity database (A). Table IA, consisting of the growth inhibition (GI5o) values for the 60 cell lines and 24 compounds, was created from the NCI-DTP in vitro cancer screen database. This subset of compounds was selected from the larger 23,000 compound database available from the DTP. The compounds were selected on the basis of their known mechanism of action and chemical structure. The average potency—log{GI50} was extracted from the comma-delimited text files available through the Web at http://www.nci.nih.gov/intra/lmp/jnwbio.htmrl. Subsequently, these log{GI5o} values were inspected manually and classified as indicating either Low, Medium or High sensitivity to each compound.
# [2] = test system: 60 cancer cell lines (NCI 60 cancer cell line series); settings: cited from earlier work
compound,measurement,setting,value
OC[C@H]1O[C@@H](n2cnc3c2N=CNC[C@H]3O)C[C@@H]1O [2′-deoxycoformycin],1 # of Low,[1],9
same,2 # of Medium,[1],43
same,3 # of High,[1],8
same,"classification of cell line as Low(1), Medium(2) or High(3) sensitivity to compound",[1],2 and 1 and 3
same,sensitivity class Prostate PC-3(I) CL11001,[1],1
same,sensitivity class Renal 786-O CL9018,[1],2
same,sensitivity class Renal A498 CL9013,[1],2
same,sensitivity class Renal ACHN CL9023,[1],2
same,sensitivity class Renal CAKI-1 CL9015,[1],3
same,sensitivity class Renal RXF-393 CL9016,[1],3
same,sensitivity class Renal SN12C CL9008,[1],2
same,sensitivity class Renal TK10 CL9024,[1],1
same,sensitivity class Renal UO-31 CL9004,[1],2
same,"sensitivity class of the cell line to the compound (1 Low, 2 Medium, 3 High)",[1],3 and 2
same,"classification of cell line as Low(1), Medium(2) or High(3) sensitivity to compound",[1]; Colon SW-620 (CL4009),2
same,"classification of cell line as Low(1), Medium(2) or High(3) sensitivity to compound",[1]; Leukemia CCRF-CEM(I) (CL7003),2
same,"classification of cell line as Low(1), Medium(2) or High(3) sensitivity to compound",[1]; Leukemia HL-60(I) (CL7008),2
same,"classification of cell line as Low(1), Medium(2) or High(3) sensitivity to compound",[1]; Leukemia K562(I) CL7005,2
same,"classification of cell line as Low(1), Medium(2) or High(3) sensitivity to compound",[1]; Leukemia MOLT-4 (CL7006),2
same,"classification of cell line as Low(1), Medium(2) or High(3) sensitivity to compound",[1]; Leukemia RPMI-8226(I) (CL7010),2
same,"classification of cell line as Low(1), Medium(2) or High(3) sensitivity to compound",[1]; Leukemia SR CL7019,3
same,"classification of cell line as Low(1), Medium(2) or High(3) sensitivity to compound",[1]; Melanoma LOX IMVI CL10001,2
same,"classification of cell line as Low(1), Medium(2) or High(3) sensitivity to compound",[1]; Melanoma M14 (CL10014),2
same,"classification of cell line as Low(1), Medium(2) or High(3) sensitivity to compound",[1]; Melanoma MALME-3M CL10002,2
same,sensitivity class NSCLC NCI-H23(I) CL1001,"[1]; cell line NSCLC NCI-H23(I), CL1001",2
same,sensitivity class NSCLC NCI-H332M CL1017,"[1]; cell line NSCLC NCI-H332M, CL1017",2
same,sensitivity class NSCLC NCI-H460 CL1021,"[1]; cell line NSCLC NCI-H460, CL1021",2
same,sensitivity class NSCLC NCI-H522 CL1003,"[1]; cell line NSCLC NCI-H522, CL1003",3
same,sensitivity class Ovarian IGROV1 CL6010,"[1]; cell line Ovarian IGROV1, CL6010",2
same,sensitivity class Ovarian OVCAR-3 CL6001,"[1]; cell line Ovarian OVCAR-3, CL6001",2
same,sensitivity class Ovarian OVCAR-4 CL6002,"[1]; cell line Ovarian OVCAR-4, CL6002",2
same,sensitivity class Ovarian OVCAR-5 CL6003,"[1]; cell line Ovarian OVCAR-5, CL6003",1
same,sensitivity class Ovarian OVCAR-8 CL6005,"[1]; cell line Ovarian OVCAR-8, CL6005",2
same,sensitivity class Ovarian SK-OV-3 CL6011,"[1]; cell line Ovarian SK-OV-3, CL6011",2
same,sensitivity class Prostate DU-145 CL11003,"[1]; cell line Prostate DU-145, CL11003",3
same,-Log (GI50),[2]; Colon SW-620 (CL4009),3.4
same,-Log (GI50),[2]; Leukemia CCRF-CEM(I) (CL7003),3.4
same,-Log (GI50),[2]; Leukemia HL-60(I) (CL7008),3.4
same,-Log (GI50),[2]; Leukemia K562(I) CL7005,3.3
same,-Log (GI50),[2]; Leukemia MOLT-4 (CL7006),3.4
same,-Log (GI50),[2]; Leukemia RPMI-8226(I) (CL7010),3.3
same,-Log (GI50),[2]; Leukemia SR CL7019,3.4
same,-Log (GI50),[2]; Melanoma LOX IMVI CL10001,3.3
same,-Log (GI50),[2]; Melanoma M14 (CL10014),3.4
same,-Log (GI50),[2]; Melanoma MALME-3M CL10002,3.3
same,-Log (GI50),[2],3.5
